Counter-ions that a name gives are not always drawn.
Target: T1, Tyrosine-protein phosphatase non-receptor type 22 (Homo sapiens, UniProt Q9Y2R2)
T1 sequence (Q9Y2R2 whole entry): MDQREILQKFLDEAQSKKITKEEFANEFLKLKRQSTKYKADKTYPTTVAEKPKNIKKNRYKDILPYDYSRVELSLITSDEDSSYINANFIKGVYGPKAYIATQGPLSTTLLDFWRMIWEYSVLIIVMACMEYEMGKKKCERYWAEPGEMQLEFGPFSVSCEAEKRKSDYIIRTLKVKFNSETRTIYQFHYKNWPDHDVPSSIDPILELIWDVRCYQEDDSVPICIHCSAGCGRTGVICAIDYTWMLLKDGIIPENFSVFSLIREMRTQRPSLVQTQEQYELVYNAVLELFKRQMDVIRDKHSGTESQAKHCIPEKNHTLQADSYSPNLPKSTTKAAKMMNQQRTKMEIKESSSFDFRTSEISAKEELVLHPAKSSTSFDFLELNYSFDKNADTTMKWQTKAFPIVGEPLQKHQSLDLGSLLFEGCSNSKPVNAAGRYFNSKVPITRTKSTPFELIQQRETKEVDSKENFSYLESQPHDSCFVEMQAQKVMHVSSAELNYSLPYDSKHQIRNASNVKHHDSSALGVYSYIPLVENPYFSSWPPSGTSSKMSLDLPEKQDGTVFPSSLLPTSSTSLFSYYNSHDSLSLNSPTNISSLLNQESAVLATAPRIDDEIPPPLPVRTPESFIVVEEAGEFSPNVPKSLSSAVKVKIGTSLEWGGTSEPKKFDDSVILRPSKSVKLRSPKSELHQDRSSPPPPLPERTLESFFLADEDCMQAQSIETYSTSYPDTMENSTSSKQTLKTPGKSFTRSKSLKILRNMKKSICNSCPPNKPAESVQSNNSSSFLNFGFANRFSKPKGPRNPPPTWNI

IC50	Structure (SMILES)
> 80 µM	Cc1cccc(-c2nc(NCCCN3CCOCC3)c3ccccc3n2)c1
> 80 µM	CCc1nc(N)nc(N)c1-c1ccc(NCCN)c([N+](=O)[O-])c1
> 80 µM	CC(C)OCCCNc1nc(-c2ccccc2)nc2ccccc12 [2-phenyl-N-(3-propan-2-yloxypropyl)-4-quinazolinamine;hydrochloride]
> 80 µM	Cc1nccc(O)c1Cc1c(Cl)cccc1Cl
> 80 µM	Cc1nc(N)nc(N)c1-c1ccc([N+](=O)[O-])cc1 [6-methyl-5-(4-nitrophenyl)pyrimidine-2,4-diamine]
> 80 µM	O=C(CCCOc1ccc(Cl)cc1Cl)NNC(=O)c1ccc(NC(=O)c2ccccc2)cc1 [N-[4-[[4-[2,4-bis(chloranyl)phenoxy]butanoylamino]carbamoyl]phenyl]benzamide]
> 80 µM	c1ccc(-c2nc(NCCCN3CCOCC3)c3ccccc3n2)cc1 [SMR000071192]
> 80 µM	COc1ccccc1CNc1nc(NCc2cnc(C)cn2)c2sccc2n1 [2-N-[(2-methoxyphenyl)methyl]-4-N-[(5-methylpyrazin-2-yl)methyl]thieno[3,2-d]pyrimidine-2,4-diamine]
> 80 µM	Cc1c(CCC(=O)O)c(=O)oc2c(C)c(OCc3ccccc3Cl)ccc12 [3-[7-[(2-chlorophenyl)methoxy]-4,8-dimethyl-2-oxochromen-3-yl]propanoic acid]
> 80 µM	Nc1nc(N)c(Cc2ccc(Cl)cc2Cl)c(N)n1 [MLS000691890]
> 80 µM	CCN(c1ccccc1)S(=O)(=O)c1cc(C(=O)O)ccc1C [3-[ethyl(phenyl)sulfamoyl]-4-methyl-benzoic acid]
> 80 µM	O=c1cc(-c2cc3ccccc3o2)c2cc(O)ccc2o1 [MLS001167639]
> 80 µM	N=c1c(C(=O)NCc2ccc3c(c2)OCO3)cc2c(=O)n3ccccc3nc2n1Cc1cccnc1 [2-azanylidene-N-(1,3-benzodioxol-5-ylmethyl)-5-oxidanylidene-1-(pyridin-3-ylmethyl)dipyrido[1,2-d:3',4'-f]pyrimidine-3-carboxamide]
> 80 µM	CCc1nc(N)nc(N)c1-c1ccc(Cl)cc1
> 80 µM	Cc1cc(N2CCC(C)CC2)[nH]c2cccc(=O)c1-2 [4-methyl-2-(4-methyl-1-piperidinyl)-1H-quinolin-5-one]
> 80 µM	Clc1cccc(Cl)c1Cn1cnc(NCc2ccco2)c2ncnc1-2 [SMR000036870]
> 80 µM	CCCCC(=O)Nc1ccc(C(=O)NNC(=O)c2ccc(C)c(Br)c2)cc1 [N-(4-{[2-(3-bromo-4-methylbenzoyl)hydrazino]carbonyl}phenyl)pentanamide]
> 80 µM	Fc1ccccc1-c1nc(NC2CCCC2)c2ccccc2n1 [N-cyclopentyl-2-(2-fluorophenyl)quinazolin-4-amine]
> 80 µM	c1ccc(-c2nc(NCCCn3ccnc3)c3ccccc3n2)cc1 [MLS001007021]

IC50	Structure (SMILES)
> 80 µM	c1ccc(-c2nc(NCc3cccnc3)c3ccccc3n2)cc1
> 80 µM	Cc1ccccc1Nc1cc(C)c2c(=O)cccc-2[nH]1
> 80 µM	Cc1ccc(-c2nc(NCCN3CCOCC3)c3ccccc3n2)cc1 [SMR000108805]
> 80 µM	Cc1ccc(-c2nc(NC(=O)CSc3cc(C)c4ccccc4n3)ns2)cc1 [2-[(4-methyl-2-quinolyl)thio]-N-[5-(p-tolyl)-1,2,4-thiadiazol-3-yl]acetamide]
> 80 µM	CNc1nc(NC)c2c[nH]nc2n1 [4-N,6-N-dimethyl-1H-pyrazolo[3,4-d]pyrimidine-4,6-diamine]
> 80 µM	O=C(OCCNc1nc(-c2ccccc2)nc2ccccc12)c1cccnc1 [3-pyridinecarboxylic acid 2-[(2-phenyl-4-quinazolinyl)amino]ethyl ester]
> 80 µM	CN(C)c1nc(N)nc(/C(C#N)=C/C2CC3C=CC2C3)n1 (configuration not stated)
> 80 µM	Cc1cccc2nc(-c3ccccc3)nc(N[C@@H](CO)c3ccccc3)c12 [(2R)-2-[(5-methyl-2-phenylquinazolin-4-yl)amino]-2-phenylethanol]
> 80 µM	Cc1ccc(-c2nc(NCc3cccnc3)c3ccccc3n2)cc1 [Pyridin-3-ylmethyl-(2-p-tolyl-quinazolin-4-yl)-amine]
> 80 µM	O=C(OCCNc1nc(-c2ccccc2)nc2ccccc12)c1ccncc1 [2-[(2-phenylquinazolin-4-yl)amino]ethyl pyridine-4-carboxylate]
22.9 µM	CCOc1cc(CN=Nc2nc(O)c(CC(=O)O)s2)ccc1OCc1ccc(Cl)cc1Cl [2-[2-[(N''E)-N''-[4-(2,4-dichlorobenzyl)oxy-3-ethoxy-benzylidene]hydrazino]-4-keto-2-thiazolin-5-yl]acetic acid]
> 80 µM	c1ccc(-c2cc(N3CCCCC3)c3ccccc3n2)cc1 [2-phenyl-4-piperidin-1-ylquinoline]
> 80 µM	COc1ccc(/N=c2\[nH]c(=O)c3cc([N+](=O)[O-])ccc3s2)cc1 [2-(4-methoxyanilino)-6-nitro-1,3-benzothiazin-4-one]
> 80 µM	CC(C)Oc1ccc(-c2nc(NCC3CCCO3)c3ccccc3n2)cc1 (configuration not stated) [SMR000433802]
> 80 µM	COCCNc1nc(NCc2cccc(OC)c2OC)c2sccc2n1 [4-N-[(2,3-dimethoxyphenyl)methyl]-2-N-(2-methoxyethyl)thieno[3,2-d]pyrimidine-2,4-diamine]
> 80 µM	CCc1nc(N)nc(N)c1-c1ccc(Cl)c(N=[N+]=[N-])c1 [5-(3-azido-4-chlorophenyl)-6-ethylpyrimidine-2,4-diamine;ethanesulfonic acid]
> 80 µM	Fc1ccccc1-c1nc(NCCCN2CCOCC2)c2ccccc2n1 [2-(2-fluorophenyl)-N-(3-morpholin-4-ylpropyl)quinazolin-4-amine]
> 80 µM	c1ccc(-c2cc(NCCN3CCCCC3)c3ccccc3n2)cc1 [SMR000567889]
